# Laboratory results from US7258999B2, “PTH responsive gene” (Wyeth, priority 2002, dated 2007).
# How the values were obtained:
# [1] = test system: Ovariectomized Rats with Established Osteopenia; assay: pQCT total and trabecular density (BMD) of proximal tibia in OVX rats; format: in vivo, rat; settings: for ΔTotal Density / ΔTrabecular Density: 40 μg/kg sc, mean ± SEM
# Procedure: The total density of the proximal tibia was evaluated in anesthetized rats using peripheral quantitative computed tomography (pQCT) with XCT-960M (Stratec Medizintechnik, Pforzheim, Germany). The baseline and post-treatment measurements were performed in anesthetized rats as follows: The right hind limb was passed through a polycarbonate tube with a diameter of 25 mm and taped to an acrylic frame with the ankle joint at a 90° angle and the knee joint at 180°. The polycarbonate tube was affixed to a sliding platform that maintained it perpendicular to the aperture of the pQCT. The platform was adjusted so that the distal end of the femur and the proximal end of the tibia would be in the scanning field. A two dimensional scout view was run for a length of 10 mm and a line resolution of 0.2 mm. […] The pQCT scan was initiated 3.4 mm distal from this point. […] A region of interest including the tibia but excluding the fibula was outlined. The soft tissue was automatically removed using an iterative algorithm. The density of the remaining bone (Total density) was reported in mg/cm^3. The change in total density was calculated for each animal by subtracting post-treatment and baseline total density values.
# Female Wister rats 4 weeks of age were treated with vehicle (saline) and human PTH (1-34) at a dose of 40 μg/kg of body weight for eight days. Prior to PTH administration animals were ovariectomized (OVX). Three weeks post OVX total BMD was measured to determine if osteopenia was established. Subcutaneous injection of PTH once a day represented intermittent administration of PTH, while osmotic pump with release rate of 40 μg/kg/day implanted under the skin represented continuous way of PTH administration. On the eight day of treatment, 6 hours post treatment animals were scarified and samples were collected for further analysis. Each treatment group contained 8 animals.
# PTH (1-34) in a dose of 40 μg/kg was administered for eight days to the 3 weeks OVX rats in intermitted and continuous manner to induce anabolic and catabolic PTH effects respectively. As described in General Method section, intermittent administration of PTH was presented by once a day subcutaneous injection of PTH while continues administration was presented with osmotic pumps implanted under the skin with release rate of 40 μg/kg a day. Total bone mineral density was measured using pQCT. Intermittent PTH injection induced significant increases in total BMD, with Δ BMD of […] (FIG. 1). […] Thus, PTH exerts its effect on bone anabolic and catabolic (i.e., causing a decrease in BMD) depending of the way of its administration.
# In order to examine whether changes in PAIGB expression with intermittent PTH treatment correlates with effects of PTH on bone, samples from rats treated with PTH for 2, 4 and 8 days were subjected to BMD measurements for both total and trabecular bone (trabecular density of proximal tibia was measured). Two days PTH treatment increases expression of PAIGB. At the same time point significant increase in trabecular BMD (Δ trabecular density: 6.98+/−17.90 with PTH treatment vs −27.1+/−9.27 with vehicle treatment) was detected without any significant changes in total BMD (Δ total density: −9.15+/−2.94 PTH vs 0.69+/−4.10 vehicle) (Table 1).
# [2] = test system: PAIGB mRNA; assay: In situ hybridization of PAIGB mRNA in mouse calvariae; format: in vivo; settings: Swiss Webster mice, 100 μg/kg/day sc, 30 days
# Procedure: In situ analysis of PAIGB mRNA expression can be assessed in various animal species including human bone biopsy samples or from mouse, rat, dog bone samples etc., that have been treated with bone forming agents. Swiss Webster mice that have been treated with 100 μg/kg/day PTH 1-34 subcutaneously or 30 days. Mouse calvariae were gently dissected and fixed in 4% paraformaldehyde. Following fixation, the bones were decalcified in TBD-2 decalcifying agent (Shandon Lipshaw, Pittsburgh, Pa.) for 7-8 hrs then dehydrated in graded alcohol. The calvariae was subsequently bisected perpendicular to the sagittal suture through the central portion of the parietal bones parallel to the lambdoidal and coronal sutures and embedded in paraffin (femur and tibia samples are embedded longitudinally in paraffin). Four to six 5 μm-thick representative, non-consecutive step sections were cut for further analysis. Selected sections were stained with hematoxylin and eosin (Shandon Lipshaw, Pittsburgh, Pa.) and adjacent section were used for in situ hybridization. […] The expression of mRNA are evaluated using a Nikon microscope with either bright or dark field.
# [3] = four days treatment, listed as HPTH (1–34)
# [4] = four days treatment, listed as PTH
# [5] = two days treatment, listed as HPTH (1–34)
# [6] = two days treatment, listed as PTH
substance,measurement,setting,value
human PTH (1-34),change in total BMD,"[1]; continuous: osmotic pump 40 μg/kg a day, eight days, 3 weeks OVX rats",did not induce any changes
same,ΔTotal Density,[1]; [3],-10.56 ± 3.11 mg/mL
same,ΔTrabecular Density,[1]; [3],8.70 ± 9.98 mg/mL
same,ΔTotal Density,[1]; [4],10.56 ± 3.11 mg/mL
same,ΔTrabecular Density,[1]; [4],8.70 ± 9.98 mg/mL
same,Δ BMD (total BMD),"[1]; intermittent: 40 μg/kg once a day sc, eight days, 3 weeks OVX rats",80 mg/cm³
same,ΔTotal Density,[1]; [5],-9.15 ± 2.94 mg/mL
same,ΔTrabecular Density,[1]; [5],6.98 ± 17.90 mg/mL
same,ΔTotal Density,[1]; [6],-9.15 ± 2.94 mg/mL
same,ΔTrabecular Density,[1]; [6],6.98 ± 17.90 mg/mL
same,PAIGB mRNA expression in calvariae (in situ hybridization),[2],induced in osteoblastic cells adjacent to the bone surface in the periosteum
